# Assay results: US11298396B2, “Agent for inhibiting or reducing light sensitivity” (Osaka University, priority 2017, dated 2022)
# Residues, ends and D or L forms follow the SMILES beside them. *: point of attachment. Cbz = O=C(OCc1ccccc1)*
# B1: C-terminal protein (C-terminal 298 residues) of the mouse Klhl18 gene: C-terminal 298 residues of mouse Klhl18 protein, expressed from plasmid pCAG-N-3× FLAG-C-Klhl18; acts as dominant negative (protein)
# chain: RTRPRCCTSIAGLIYAVGGLNSAGDSLNVVEVFDPIANRWEKCHPMTTARSRVGVAVVNGLLYAIGGYDGQLRLSTVEAYNPETDTWTRVGSMNSKRSAMGTVVLDGQIYVCGGYDGNSSLNSVETYSPETDKWTVVTPMSSNRSAAGVTVFEGRIYVSGGHDGLQIFSSVEHYNHHTATWHPAASMLNKRCRHGAASLGSKMFVCGGYDGSGFLSIAEMYSSVADQWCLIVPMHTRRSRVSLVASCGRLYAVGGYDGQSNLSSVEMYDPETDRWTFMAPMACHEGGVGVGCIPLLTI
# modifications: left off: small tags and cut ends
# notes: C-terminal 298 residues of mouse Klhl18 protein, expressed from plasmid pCAG-N-3× FLAG-C-Klhl18; acts as dominant negative
# Tests used:
# Klhl18 protein = assay: Inhibition of Klhl18-mediated degradation of Unc119 in transfected HEK293T cells, Western blotting; assay type: cell-based, mouse
# Description: Retinal tissue was harvested from one month old Klhl18 KO mice and wild-type (C57BL/6J strain) mice (purchased from Japan SLC) according to the conventional method. The retinal tissue was dissolved in 2× sample buffer (0.1 M Tris-HCl (pH 6.8), 1% SDS, 5% β-mercaptoethanol, 10% glycerol, and 0.02% BPB) and heat-treated at 100° C. for 5 minutes. SDS-PAGE was performed and the separated proteins on the gel were electrically transferred to a PVDF membrane (Merck Millipore) at 12 V for 90 minutes. The PVDF membrane was blocked with blocking solution (5% skim milk and 0.05% Tween 20/TBS) with shaking at room temperature for 1 hour. The PVDF membrane was reacted with a primary antibody diluted in the blocking solution at 4° C. overnight. The primary antibody was anti-Unc119 antibody (mouse monoclonal, a gift from Dr. Haeseleer (University of Washington, USA) (Haeseleer, 2008), 1:10 dilution) or α-Tublin antibody (mouse monoclonal, Sigma, 1:6,000 dilution). After completion of reaction with the primary antibody, the PVDF membrane was washed three times with 0.05% Tween 20/TBS with shaking at room temperature for 10 minutes. The PVDF membrane was reacted with a secondary antibody diluted in the blocking solution at room temperature for 1 hour. The secondary antibody was anti-mouse IgG (H+L) HRP-conjugated antibody (goat polyclonal, Zymed, 1:6,000 dilution). After completion of reaction with the secondary antibody, the PVDF membrane was again washed three times with 0.05% Tween 20/TBS with shaking at room temperature for […]. The PVDF membrane was reacted with chemiluminescent reagent (Chemi-Lumi One (Nacalai Tesque)) or Pierce Western Blotting Substrate Plus (Thermo Fisher Scientific). The membrane was exposed to an X-ray film, and the protein of interest was detected using a film processor.
# The HEK293T cell line was cultured in DMEM (Wako Pure Chemical Industries) supplemented with antibiotics (penicillin (100 μg/mL)/streptomycin (100 μg/mL)) and 10% FBS at 37° C. under 5% CO2. […]
# BALB/c mice [1] = assay: Light-induced damage in mice, thickness of the photoreceptor layer (toluidine blue staining); assay type: in vivo, mouse; conditions: 60 mg/kg subcutaneous; blue light damage for three days; vs DMSO control (FIG. 26)
# Description: Retinal sections of wild-type control mice and Klhl18 KO mice with light-induced damage were prepared in the same manner as in Example 2 (2). The mouse retinal sections were used to measure the thickness of the photoreceptor layer in the same manner as in Example 5. Specifically, the sections were washed with PBS and stained with 0.1% toluidine blue (Sigma)/PBS for 1 minute. The sections were washed three times with PBS, and sealed in mounting medium. The sealed specimens were observed under an upright microscope equipped with a differential interference contrast objective lens. The thickness of the photoreceptor layer was determined by measuring the distance from the optic nerve.
# MLN4924 (Chemscene) (60 mg/kg) was subcutaneously injected into the back of 4-weeks-old BALB/c mice (Japan SLC) that were kept in a dark place for 7 hours to be adapted to darkness. Four hours later, the mice were placed in a box with four mirrored walls and a mirrored floor, and exposed to blue LED light. The wavelength of the light was about 450 nm, and the light reaching the mice was at about 7000 lux. After three hours of exposure to the blue light, the mice were kept in the normal environment for 10 hours. This cycle was repeated for three days. […]
# BALB/c mice [2] = assay: Light-induced damage in mice, electroretinogram (ERG) recording; assay type: in vivo, mouse; conditions: 60 mg/kg subcutaneous; blue LED about 450 nm, about 7000 lux, 3 hours, cycle repeated for three days; ERG four days after final exposure; vs DMSO control (FIG. 24)
# Description: Wild-type or Klhl18 KO mice of postnatal 2 months were light adapted or dark adapted. Light adaptation was performed at a light level of about 1000 lux for 1 hour or longer, and dark adaptation was performed by keeping the mice in a dark room for 4 hours or longer. Anesthesia was performed on dark-adapted or light-adapted mice with intraperitoneal injection of ketamine (100 mg/kg body weight per mouse) and xylazine (10 mg/kg body weight per mouse) in saline. Pupils were dilated with topical administration to the eyes with a mixture of 0.5% tropicamide and 0.5% phenylephrine HCl. ERG responses were measured with LED electrodes that emit a white flash (PuREC; Mayo Corporation). The mouse cornea was brought into contact with the electrodes, and stimulated with the stimulating flash using LED Visual Stimulator (LS-100, Mayo Corporation), and the ERG waves were recorded by TA-100 (Mayo Corporation) (FIGS. 7A and 8A). Strobe light stimulation with four levels of stimulus intensities ranging from −4.0 to 1.0 log cd−s/m^2 (−4.0, −3.0, −1.0 and 1 log cd−s/m^2) were used for the scotopic ERGs to measure the function of rod photoreceptor cells. […] From the wave data, a-waves and b-waves were quantified and expressed as the mean value±standard error. The photopic ERGs were recorded on a rod-suppressing white background of 1.3 log cd/m^2. […]
# BALB/c mice [3] = assay: Light-induced damage in mice, fluorescence immunostaining of the retina; assay type: in vivo, mouse; conditions: 60 mg/kg subcutaneous; blue light damage for three days; vs DMSO control (FIG. 25)
# Description: Fluorescent immunostaining was performed using the mouse retinal sections. Specifically, the mouse retinal sections prepared in the same manner as in Example 2 (2) were washed twice with PBS, and blocked with blocking buffer (4% Normal donkey serum/0.1% Triton X-100/PBS) at room temperature for 1 hour. The sections were reacted with a primary antibody at 4° C. overnight. The sections were washed three times with PBS, and reacted with a secondary antibody at room temperature for 2 hours. The primary antibody was anti-Rhodopsin antibody (rhodopsin, rabbit polyclonal, Santa Cruz, 1:500 dilution) or anti-S-opsin antibody (S-opsin (blue cone opsin), goat polyclonal, Santa Cruz, 1:500 dilution). The secondary antibody was Alexa Flour 488-conjugated anti-rabbit antibody (Thermo Fisher Scientific, 1:500 dilution) or Cy3 antibody (Jackson ImmunoResearch Laboratories, 1:500 dilution). After completion of reaction with the secondary antibody, the specimens were washed three times with PBS and sealed in mounting medium. All fluorescence images were taken under a confocal laser scanning microscope (LSM 700, Carl Zeiss).
# MLN4924 (Chemscene) (60 mg/kg) was subcutaneously injected into the back of 4-weeks-old BALB/c mice (Japan SLC) that were kept in a dark place for 7 hours to be adapted to darkness. […]
molecule,measurement,setting,value
CC(C)C[C@@H](C=O)NC(=O)[C@H](CC(C)C)NC(=O)[C@H](CC(C)C)NC(=O)OCc1ccccc1 [MG-132] (Cbz-Leu-Leu-Leu-aldehyde),degradation of the target protein Unc119 by the full-length Klhl18 protein,"Klhl18 protein; HEK293T cells, MG-132 final concentration 10 μM, 6 hours, vs 0.1% DMSO (FIG. 11)",inhibits degradation of the target protein Unc119 by the full-length Klhl18 protein
NS(=O)(=O)OC[C@@H]1C[C@@H](n2ccc3c(N[C@H]4CCc5ccccc54)ncnc32)C[C@@H]1O [MLN4924],thickness of the photoreceptor layer in the retina,BALB/c mice [1],better maintained as compared with that of the control mice
same,electric amplitudes of the a-waves (photoreceptor cell activity),BALB/c mice [2],higher than those in the control mice
same,electric amplitudes of the b-waves (bipolar cell activity),BALB/c mice [2],higher than those in the control mice
same,degradation of the target Unc119 protein by the full-length Klhl18 protein,"Klhl18 protein; HEK293T cells, MLN4924 final concentration 0.3 μM, 6 hours, vs 0.3% DMSO (FIG. 15)",inhibits degradation of the target Unc119 protein by the full-length Klhl18 protein
same,signal intensities and thickness of cone photoreceptor cells (markers: S-opsin and M-opsin),BALB/c mice [3],better retained as compared with those in the control mice
same,signal intensities and thickness of rod photoreceptor cells (marker: rhodopsin),BALB/c mice [3],better retained as compared with those in the control mice
B1,degradation of the target protein Unc119 by the full-length Klhl18 protein,"Klhl18 protein; HEK293T cells co-transfected with FLAG-Klhl18, FLAG-C-terminal Klhl18 and HA-Unc119 plasmids, anti-HA Western blot (FIG. 10)",inhibits degradation of the target protein Unc119 by the full-length Klhl18 protein
